The values below come from ChEMBL document CHEMBL2346566, “Small molecule inhibitors of PCNA/PIP-box interaction suppress translesion DNA synthesis” (Bioorg Med Chem, 2013).

Activity calls are given as the source filed them. The rule behind the calls is not given here.

Common to all, as to format: functional, cell-based
In one assay the test system is HeLa. The assay can be described thus: Antiproliferative activity against human HeLa cells assessed as inhibition of at 10 uM after 18 hrs by assay.
In assay [1] the test system is U2OS. The assay can be described thus: Potentiation of cisplatin-induced cytotoxicity in human U2OS cells at 15 uM after 4 days by Alamar blue assay. Background: Alamar Blue is a resazurin reagent that responds to reducing activity.
Assay [2] relates to U2OS. Kind of assay: Cytotoxicity against human U2OS cells at 15 uM after 4 days by Alamar blue assay.

As to `CC(=O)N[C@H](CO)Cc1cc(I)c(Oc2ccc(O)cc2)c(I)c1`, the result in the assay with HeLa was Active. Same read-out and setting: to `CCOCCNC(=O)CCc1cc(I)c(Oc2ccc(O)cc2)c(I)c1` belongs “Active”; to `O=C(CCc1cc(I)c(Oc2ccc(O)cc2)c(I)c1)NCC1CCCO1` (configuration not stated), “Active”; to `CN(C)C(=O)Cc1cc(I)c(Oc2ccc(O)c(I)c2)c(I)c1`, “Active”. The same measure, in the same setting: to `O=C(Cc1cc(I)c(Oc2ccc(O)c(I)c2)c(I)c1)NS(=O)(=O)c1ccccc1` belongs “Active”; to `COC(=O)N[C@H](CO)Cc1cc(I)c(Oc2ccc(O)cc2)c(I)c1`, “Active”. For `O=C(CCc1cc(I)c(Oc2ccc(O)cc2)c(I)c1)N1CCOCC1`, the result in the assay with HeLa was Active. Same read-out and setting: the entry for `CC(C)NC(=O)N[C@H](CO)Cc1cc(I)c(Oc2ccc(O)cc2)c(I)c1` is “Active”; for `CNC(=O)CCc1cc(I)c(Oc2ccc(O)cc2)c(I)c1` it is “Active”. As for `CC(C)NC(=O)NC[C@@H](N)Cc1cc(I)c(Oc2ccc(O)cc2)c(I)c1`, the result with U2OS [1] and with HeLa was Active. Further, in the assay with U2OS [2], the outcome was inactive. Regarding `CNC(=O)Cc1cc(I)c(Oc2ccc(O)c(I)c2)c(I)c1`, the outcome in the assay on U2OS [1] and in the assay on HeLa was Active. The outcome with U2OS [2] was inactive.

On to `CS(=O)(=O)NC(=O)Cc1cc(I)c(Oc2ccc(O)c(I)c2)c(I)c1`, for which, in the assay on HeLa, the result was Active.

With `CC(=O)NC[C@@H](N)Cc1cc(I)c(Oc2ccc(O)cc2)c(I)c1`, the outcome in the assay with U2OS [1] and in the assay with HeLa was Active. Besides, the outcome in the assay with U2OS [2] was inactive. As for `O=C(Cc1cc(I)c(Oc2ccc(O)c(I)c2)c(I)c1)N1CCOCC1`, the outcome in the assay with HeLa was Active. Consider `O=C(CCc1cc(I)c(Oc2ccc(O)cc2)c(I)c1)NCCO`, for which, in the assay on HeLa, the result was Active. For `N[C@H](CO)Cc1cc(I)c(Oc2ccc(O)cc2)c(I)c1`, the outcome with U2OS [1] and with HeLa was Active. For the same molecule, the result in the assay with U2OS [2] was inactive. In the case of `CS(=O)(=O)NC[C@@H](N)Cc1cc(I)c(Oc2ccc(O)cc2)c(I)c1`, in the assay with HeLa, the result was Active. On the same count and under the same terms, to `N[C@H](CNC(=O)CCN1CCOCC1)Cc1cc(I)c(Oc2ccc(O)cc2)c(I)c1` belongs “Active”; to `N[C@H](CNC(=O)N1CCOCC1)Cc1cc(I)c(Oc2ccc(O)cc2)c(I)c1`, “Active”.
